Assay results: patent publication US20230381170A1, “METHOD FOR TREATING ALS/FTD THROUGH DEGRADATION OF RNA REPEAT EXPANSION” (University of Florida Research Foundation, Incorporated, priority 2020, published 2023)

Columns and labels:
Human Topoisomerase II = target: T1, Human Topoisomerase II (Homo sapiens, UniProt P11388); assay: Topoisomerase assay; format: biochemical
T1 construct: purchased TopoGen
Experimental: Topoisomerase Assay. Topoisomerase inhibition was assessed in vitro using the TopoGen Human Topoisomerase II Assay Kit per manufacturer's recommended protocol. Samples were run on a 1% agarose gel post-stained with ethidium bromide. Topoisomerase inhibition was quantified as a percentage of linearized DNA compared to the positive control compound VP-16 supplied.

r(G4C2)exp = assay: ASO-Bind-Map target profiling in patient-derived LCLs; format: cell-based, human; conditions: ASO 100 nM
Experimental: Target profiling by ASO-Bind-Map. LCLs were first treated with compounds overnight at 37° C. and then transfected with G4C2-ASO (100 nM; Table 3). The cells were then incubated for another 24 h at 37° C. followed by extraction of total RNA as described above. The levels of various fragments were then measured by RT-qPCR as described above.

r(G4C2)4 = assay: 1D NMR imino proton monitoring; format: binding
Experimental: (§1) Preparation of MNR Samples. RNA constructs were purchased from GE Dharmacon, Inc. After deprotection and desalting, RNAs were dissolved in buffer comprising 10 mM sodium phosphates and 100 mM LiCl at pH 7.0 and reannealed by heating to 95° C. for 4 min followed by cooling to room temperature. Solvent consisted of H2O, to which 20 μL of D2O was added to provide a lock signal. Final concentrations of RNA were 100 μM for 1D NMR spectroscopy and 400 μM of RNA for 2D NMR spectroscopy. Dimeric derivatives 2 and 3 were dissolved in DMSO-d6 to 10 mM concentrations.
(§2) NMR Spectroscopy. NMR spectra were acquired on samples in Shigemi tubes using Bruker Avance 600 and 700 MHz spectrometers equipped with cryoprobes. 1D spectra were recorded on free form RNA, to which 2 and 3 was added to final compound/RNA molar ratios of 0.5 and 1.0. 2D spectra were acquired with 400 ms mixing times on samples containing 3 at 1.0 compound/RNA molar ratio. In 1D and 2D NMR spectra, WATERGATE and excitation pulse sequences were used to suppress the water signal, respectively (53-55). Proton chemical shifts were referenced internally to 4,4-dimethyl-4-silapentane-1-sulfonic acid (DSS, 0.1 mM). 1D spectra were processed using MestreNOVA software. 2D spectra were processed using NMRPipe and assigned using SPARKY (56).

r(G2C2)4 = assay: 1D NMR imino proton monitoring; format: binding; conditions: hairpin with fully paired stem
Experimental: as §1, §2

[1] = tested on: r(G4C2)exp-containing intron 1; assay: C9orf72 intron 1 RT-qPCR in c9ALS iPSC-derived spinal neurons; format: cell-based, human
Experimental: iPSCs were differentiated into spinal neuron cells using a previously the previously described direct induced motor neuron (diMNs) differentiation protocol (58) with modifications. Briefly, iPSCs were plated into Matrigel-coated 100 mm dishes (30-40% confluence). Neuroepithelial induction was performed by replacing the iPSC maintenance medium with Stage 1 medium [47.5% IMDM (Iscove's Modified Dulbecco's Medium) medium, 47.5% F12 medium, 1% NEAA (Non-Essential Amino Acid) (Life Technologies), 2% B27 (Invitrogen), 1% N2, 1% PSA (Penicillin-Streptomycin-Amphotericin), 0.2 μM LDN193189 (Stemgent), 10 μM SB431542 ([…] Technologies) and 3 μM CHIR99021 (Sigma-Aldrich)]. After daily medium changes for 6 days, cells were detached with Accutase and seeded into 6-well plates (1.5×10^6 cells/well) in 3 mL Stage 2 medium. Cells were maintained in Stage 2 medium [Stage 1 medium supplemented with 0.1 μM All-trans RA (Sigma-Aldrich) and 1 μM *SAG (Cayman Chemicals)], with daily changes, through Day 11. […]
Measuring Levels of C9orf72 and C9orf72 Variants by RT-qPCR. […] RNA was extracted as described above and the expression of C9orf72 variants was determined by RT-qPCR. […] RNA was extracted as described above and the expression of C9orf72 variants was determined by RT-qPCR.

Nup98 = Nup98 by structured illumination microscopy in patient-derived iPSNs; format: cell-based, human; conditions: 50 nM
Experimental: Nuclei Isolation and Super Resolution Structured Illumination Microscopy. iPSC-derived spinal neurons were generated according to the previously published diMNs protocol (37). On day 15 and 18 of differentiation, […] G4C2 repeat-targeting ASO was added to media as previously described (59). For compound treatment, 50 nM 7 was added to media on days 15, 18, 21, 24, 27, and 30 of differentiation. On day 32 of differentiation, nuclei isolation was performed using the Nuclei Pure Prep Nuclei Isolation Kit (Sigma Aldrich) as previously described (68). Isolated nuclei were spun onto collagen coated slides and immunostained following standard protocols as previously described (68). Primary antibodies: 1:250 rat anti-Nup98 (Abcam), 1:500 chicken anti-NeuN (Millipore); secondary antibodies: […] Alexa 488 (Invitrogen), goat anti-chicken Alexa 647 (Invitrogen). NeuN positive nuclei were imaged by super resolution structured illumination microscopy (SIM) using a Zeiss ELYRA S.1 as previously described (14). Next, 50 nuclei per iPSC line/treatment group were analyzed using the 3D suite plugin in FIJI. The average number of spots from the 50 nuclei for each cell line and treatment group was used for statistical analyses. […] Quantification is presented as violin plots to represent the full variability of all nuclei analyzed.

T1 sequence (P11388 whole entry): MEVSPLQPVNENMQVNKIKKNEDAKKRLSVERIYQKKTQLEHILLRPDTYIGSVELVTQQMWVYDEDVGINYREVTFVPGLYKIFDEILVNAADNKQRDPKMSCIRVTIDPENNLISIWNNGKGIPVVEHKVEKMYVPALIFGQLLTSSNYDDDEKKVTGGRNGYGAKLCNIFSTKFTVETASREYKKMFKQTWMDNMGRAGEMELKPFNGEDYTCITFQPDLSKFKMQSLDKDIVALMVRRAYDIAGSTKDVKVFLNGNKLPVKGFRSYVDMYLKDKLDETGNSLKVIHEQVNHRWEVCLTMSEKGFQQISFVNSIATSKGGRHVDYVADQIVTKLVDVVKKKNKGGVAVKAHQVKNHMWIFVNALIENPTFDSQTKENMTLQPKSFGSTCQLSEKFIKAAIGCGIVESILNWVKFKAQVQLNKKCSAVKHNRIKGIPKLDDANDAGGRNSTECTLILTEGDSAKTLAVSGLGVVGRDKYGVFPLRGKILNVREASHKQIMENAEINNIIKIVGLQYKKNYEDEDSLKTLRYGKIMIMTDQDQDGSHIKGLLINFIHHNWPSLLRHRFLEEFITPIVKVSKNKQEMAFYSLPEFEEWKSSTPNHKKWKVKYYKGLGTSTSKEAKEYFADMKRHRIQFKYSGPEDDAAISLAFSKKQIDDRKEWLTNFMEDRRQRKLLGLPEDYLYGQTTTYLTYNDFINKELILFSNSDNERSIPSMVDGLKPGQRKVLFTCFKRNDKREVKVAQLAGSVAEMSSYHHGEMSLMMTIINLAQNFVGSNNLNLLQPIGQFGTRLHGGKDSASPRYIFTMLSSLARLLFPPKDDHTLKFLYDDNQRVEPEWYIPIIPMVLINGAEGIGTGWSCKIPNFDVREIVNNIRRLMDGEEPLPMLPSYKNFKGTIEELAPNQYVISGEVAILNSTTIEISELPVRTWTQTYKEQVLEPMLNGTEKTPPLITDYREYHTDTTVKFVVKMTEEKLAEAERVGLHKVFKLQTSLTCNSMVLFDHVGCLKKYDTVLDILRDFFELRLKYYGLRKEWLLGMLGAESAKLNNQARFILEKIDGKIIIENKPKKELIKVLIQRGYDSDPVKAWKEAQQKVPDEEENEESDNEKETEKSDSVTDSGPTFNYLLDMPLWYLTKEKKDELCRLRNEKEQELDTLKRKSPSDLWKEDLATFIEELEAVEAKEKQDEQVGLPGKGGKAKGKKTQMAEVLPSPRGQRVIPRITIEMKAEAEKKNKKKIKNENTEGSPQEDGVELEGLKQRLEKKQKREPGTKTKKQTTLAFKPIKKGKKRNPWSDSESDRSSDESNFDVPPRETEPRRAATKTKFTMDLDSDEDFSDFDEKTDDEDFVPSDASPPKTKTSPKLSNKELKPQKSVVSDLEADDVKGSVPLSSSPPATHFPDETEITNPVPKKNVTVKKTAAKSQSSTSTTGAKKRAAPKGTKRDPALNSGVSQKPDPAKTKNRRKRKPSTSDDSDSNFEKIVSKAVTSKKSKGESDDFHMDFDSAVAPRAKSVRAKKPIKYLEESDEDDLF

Compound	topoisomerase activity in vitro (Human Topoisomerase II)	intron 1 levels of C9orf72 mRNA in competition with G4C2-ASO (r(G4C2)exp)	complex formation, imino proton region 1D NMR (r(G4C2)4)	changes in 1D NMR spectrum upon addition of compound (r(G2C2)4)	reduction of r(G4C2)exp-containing intron 1 abundance ([1]; 50 nM) [%]	reduction of r(G4C2)exp-containing intron 1 abundance ([1]; 500 nM) [%]	Nup98 abundance (Nup98)
Cc1c2ccncc2c(C)c2c1[nH]c1ccc(OCCOCCOCCNCCOCCOCCOc3ccc4[nH]c5c(C)c6ccncc6c(C)c5c4c3)cc12 [Compound 3]	did not inhibit	dose-dependent increase	verified	no changes were observed	–	–	–
CCOC(=O)C1=C(Nc2ccccc2)S/C(=C\c2ccc(OCCOCCOCCOCCNC(=O)CCC(=O)N(CCOCCOCCOc3ccc4[nH]c5c(C)c6ccncc6c(C)c5c4c3)CCOCCOCCOc3ccc4[nH]c5c(C)c6ccncc6c(C)c5c4c3)c(O)c2)C1=O [Compound 7]	–	–	–	–	45±11	64±10	reversed the loss of Nup98
